Source: the METLIN SMRT retention time set (Domingo-Almenara et al. 2019)

Assay: gradient 5% acetonitrile 3 min, to 50% in 2 min, to 85% in 15 min, held 3 min, 100 µL/min
Settings: column: Zorbax Extend-C18 2.1 x 50 mm; eluents: water / acetonitrile, 0.1% formic acid
Outline: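 The system's dead and dwell volumes were 40 μL and 900 μL, with a Zorbax Extend-C18 column (2.1 × 50 mm, 1.8 μm) run at 100 μL/min in water and acetonitrile containing 0.1% formic acid each. Pure standards were analyzed in mixtures of ~100 molecules by HPLC–quadrupole time-of-flight mass spectrometry in positive and negative ionization mode. Retention time was assigned from computationally picked, manually inspected adduct peaks.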

Compound | RP-LC retention time [s]
Cc1ccc(C)c(S(=O)(=O)NCC2CN(C)CC23CCCCC3)c1 (configuration not stated) | 704
Cc1cccc(N2CCN(C(=O)Cc3nnc(-c4sccc4C)o3)CC2)c1 | 921
O=C(Cc1cccnc1)N1CCC[C@H]1c1nc(-c2ccccc2)n[nH]1 | 578
CCN1CCn2cc(S(=O)(=O)Nc3cccc(C)c3C)cc2C1=O | 729
CCOc1ccc(C(=O)NC2(c3nc(-c4cccnc4)no3)CCCCC2)cc1OCC | 998
COCCOCC(=O)N1[C@@H]2CC[C@H]1CC(NC(=O)c1cnc(C)cn1)C2 (some centres not stated) | 579
CCOC(=O)c1cccc(NC(=O)NC2CCN(c3ccccc3)C2=O)c1 (configuration not stated) | 683
COc1ccc(NC(=O)C2CCN(c3cc(N4CCSCC4)ncn3)CC2)cc1Cl | 706
O=C(NCc1ccc2c(c1)OCO2)c1c(O)c2cccnc2n(Cc2ccccc2)c1=O | 1290
CCOc1ccc(NC(=O)C2CCN(S(=O)(=O)c3ccc4c(c3)NC(=O)C(C)O4)CC2)cc1 (configuration not stated) | 880
COc1ccc(C)cc1NS(=O)(=O)c1ccc2c(c1)CCCC(=O)N2 | 709
CCOc1ccc(-c2cc3c(=O)n(Cc4nc(-c5cccc(OCC)c5)no4)ncn3n2)cc1 | 1220
N#Cc1ccc(C(=O)NC2CCN(c3cc(-c4cccs4)[nH]n3)C2)cc1 (configuration not stated) | 700
CNC(=O)[C@@H]1C[C@H](Oc2cccnc2)CN1C(=O)C1CC=CC1 | 554
COc1ccccc1CNC(=O)C1CCCN(c2ncnc3c2oc2ccccc23)C1 (configuration not stated) | 746
CCOC(=O)c1cc([N+](=O)[O-])sc1NC(=O)c1c(-c2ccccc2Cl)noc1C | 1220
O=C1CSC(c2cccs2)N1c1nncs1 (configuration not stated) | 804
COc1ccc(-c2noc(N3CCC(C(=O)NC4CC4)CC3)n2)cc1OC | 690
Cc1cc(C)c2c(N3CCOCC3)nc(C(=O)NCC3CCCO3)nc2n1 (configuration not stated) | 585
CCOC(=O)c1c(C)[nH]c(CN(Cc2ccc3c(c2)OCO3)C(=O)c2ccco2)c1C | 991
COc1ccc(C(=O)Nc2nnc(SCc3nnc(-c4ccccc4)o3)s2)cc1 | 899
O=C(NCc1ccco1)C1CCCN(C(=O)NC2CC2)C1 (configuration not stated) | 604
COc1ccccc1-c1nc2nccc(-c3ccco3)n2n1 | 836

Compound | RP-LC retention time [s]
COc1ccc(N2CCN(c3nc(C)cc(C)n3)CC2)cc1 | 745
O=C(NCc1ccccc1F)C1=C2CCCN2c2ccc(F)cc2S1(=O)=O | 868
Cc1noc([C@@H]2CC(F)(F)CN2C(=O)c2cc(C3CC3)[nH]n2)n1 | 726
Cc1ccc(Nc2nc(C)cc(N3CCN(C(=O)Nc4cccc(C(F)(F)F)c4)CC3)n2)cc1 | 806
Cn1nccc1-c1cccc(-c2noc(-c3ccccc3F)n2)c1 | 1070
Cc1ccc(NS(=O)(=O)c2cc(-c3[nH]ncc3C(=O)N3CCCC3)oc2C)c(F)c1 | 738
O=C(c1ccc2c(c1)nnn2CCN1CCOCC1)N1CCSCC1 | 564
O=C(Nc1cccc(F)c1)N1CCC(n2c(-c3ccco3)nc3cccnc32)C1 (configuration not stated) | 767
COc1ccc(S(=O)(=O)N2CCCC(C)(C(=O)NCc3ccccc3)C2)cc1 (configuration not stated) | 917
CC(=O)c1cccc(S(=O)(=O)NC(C)Cc2ccco2)c1 (configuration not stated) | 770
O=C(Nc1ccccc1Cl)c1csc(-c2ccc(N3CCCC3)nc2)n1 | 878
Cn1nc2n(c1=O)CCN(S(=O)(=O)c1ccc(C#N)cc1)CC2 | 655
Clc1ccc2nc(Nc3ncccn3)nc(-c3ccccc3)c2c1 | 747
CCCCC(=O)N(CC)c1nc(-c2ccccc2)cs1 | 1330
Cc1ccc(C)c(NC(=O)Cn2ccc3sccc3c2=O)c1 | 742
Cc1ccc(S(=O)(=O)N2CCC3(CCC(CN4CCN(C)CC4)O3)CC2)cc1Cl (configuration not stated) | 655
CCn1c(=O)c2c(cc(C)n2C)n(CC(=O)Nc2ccc(C)c(F)c2)c1=O | 855
COC(=O)c1cccc(Nc2c(-c3ccc(N4CCOCC4)cc3)nc3cnccn23)c1 | 754
O=C(Cc1ccc(Cl)cc1)NCc1nc(-c2ccc3oc(-c4ccccc4)nc3c2)no1 | 1110
O=C(Cc1csc2nc(-c3ccccc3)cn12)Nc1ccc(F)c(Cl)c1 | 902
CO[C@H]1C(=O)N(C(C)C)[C@H]1C1CCN(C(=O)Nc2ccc(C)c(C)c2)CC1 | 820
c1ccc([C@@H]2CN(Cc3ccncc3)C[C@H]2COc2cccnc2)nc1 | 516
CC(=O)N1CCc2cc(N3CC(C(=O)Nc4ccc(Br)cc4)CC3=O)ccc21 (configuration not stated) | 770

Compound | RP-LC retention time [s]
Cc1ccc(-c2nc3cnccn3c2Nc2cccc(C)c2C)cc1 | 1040
COC(=O)C1=C(CN2CCOCC2)NC(=O)NC1c1ccc(C)cc1C (configuration not stated) | 609
COc1ccc(C(=O)NC2CCN(c3ccc(F)cc3)C2=O)cc1 (configuration not stated) | 756
COc1cc(NC(=O)CN2C(=O)C(C)(C)c3ccccc32)cc(OC)c1 | 876
O=C(Nc1ccccc1F)c1cc(C2CC2)on1 | 655
COc1ccc(CCc2nc3nccc(-c4ccncc4)n3n2)cc1OC | 645
COc1nc(N)nc2c1ncn2[C@@H]1O[C@H](CO)[C@@H](O)[C@@H]1O | 568
CCOC(=O)C1CCN(c2cc(-c3nc(-c4ccccc4)no3)c3ccccc3n2)CC1 | 1370
CN1C(=O)Cc2ccccc2C1C(=O)NCc1cccc(F)c1 (configuration not stated) | 729
Cc1nccn1CCNC(=O)c1cc(-c2ccccc2)on1 | 569
Cn1cc(-c2nc(C(=O)Nc3ccc(F)cc3F)cs2)c2cccnc21 | 1070
Cc1cccc2nnc(N3CCCC(C(=O)Nc4ccc5c(c4)OCCO5)C3)n12 (configuration not stated) | 669
Cc1ccc(-c2noc(CN3C(=O)COc4cc(C)ccc43)n2)cc1 | 1130
CCC(C)Nc1nc2c(c(=O)n(C)c(=O)n2C)n1CC(O)COc1ccccc1 (configuration not stated) | 865
COC(=O)c1ccc2c(=O)n(-c3cccc(C)c3)c(N3CCCC3)nc2c1 | 953
O=C(Nc1ccc2c(c1)CN(C(=O)Nc1ccc3c(c1)OCCO3)CCO2)C1CC1 | 717
Cc1ccc(CNC(=O)Cn2ncc3c(c2=O)N(CC2CC2)C(=O)CS3)cc1 | 784
Cc1ccc(-c2nnc(-c3ccc(Br)cc3)o2)cc1S(=O)(=O)N1CCCC1 | 1190
COc1cccc(Cn2c(=O)c3sccc3n(Cc3nc(-c4ccccc4C)no3)c2=O)c1 | 1150
COC(=O)c1c(NC2CCCCC2)c2cccc(Cl)c2[nH]c1=O | 876
CCCN1CC(Oc2ccc(-c3noc(C4CC4)n3)cc2)C1 | 653
